Laboratory results as given in ChEMBL document CHEMBL4382204 (Eur J Med Chem, 2018).
The source made the active and inactive calls. The calls are words filed in the database; no cut-off is given here.

Legend:
[1] = Apparent volume of distribution during terminal phase in Sprague-Dawley rat at 10 mg/kg, po by LC-MS/MS analysis; format: ADME, organism-based; settings: in vivo
[2] = AUC (0 to t) in Sprague-Dawley rat at 1 mg/kg, iv by LC-MS/MS analysis; format: ADME, organism-based; settings: in vivo
[3] = target: Discoidin domain-containing receptor 2 (Homo sapiens) (UniProt Q16832); test: Inhibition of BCR fused DDR2 (unknown origin) transfected in mouse BAF3 cells assessed as growth inhibition after 72 hrs by CCK8 assay; format: cell-based
Chain of Discoidin domain-containing receptor 2 (Homo sapiens) (Q16832 whole entry, the tested form may be a part): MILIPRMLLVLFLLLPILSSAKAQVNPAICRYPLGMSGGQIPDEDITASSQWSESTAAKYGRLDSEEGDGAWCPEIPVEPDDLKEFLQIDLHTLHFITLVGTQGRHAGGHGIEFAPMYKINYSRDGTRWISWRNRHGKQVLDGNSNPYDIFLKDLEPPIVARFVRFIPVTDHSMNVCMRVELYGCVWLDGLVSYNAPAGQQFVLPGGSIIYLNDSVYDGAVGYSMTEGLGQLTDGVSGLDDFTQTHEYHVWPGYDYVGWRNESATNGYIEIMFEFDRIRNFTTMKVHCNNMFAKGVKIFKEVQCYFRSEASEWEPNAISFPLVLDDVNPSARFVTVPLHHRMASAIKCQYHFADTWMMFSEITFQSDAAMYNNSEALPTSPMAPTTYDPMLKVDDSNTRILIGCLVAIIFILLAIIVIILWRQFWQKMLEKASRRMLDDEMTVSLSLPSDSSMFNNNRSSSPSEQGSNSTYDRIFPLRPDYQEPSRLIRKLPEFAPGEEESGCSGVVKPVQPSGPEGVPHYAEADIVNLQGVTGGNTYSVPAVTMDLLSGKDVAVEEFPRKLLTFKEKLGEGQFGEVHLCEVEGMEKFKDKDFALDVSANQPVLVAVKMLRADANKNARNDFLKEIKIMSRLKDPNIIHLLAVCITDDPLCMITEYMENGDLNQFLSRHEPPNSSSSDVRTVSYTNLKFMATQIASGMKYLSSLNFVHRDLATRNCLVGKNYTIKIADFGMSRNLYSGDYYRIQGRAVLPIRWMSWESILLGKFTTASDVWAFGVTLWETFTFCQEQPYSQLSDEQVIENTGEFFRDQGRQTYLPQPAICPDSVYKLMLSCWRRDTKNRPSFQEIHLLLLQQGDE

[4] = target: Cytoplasmic tyrosine-protein kinase BMX (Homo sapiens) (UniProt P51813); test: Inhibition of wild type C-terminal FLAG-tagged human TEL fused BMX (unknown origin) transfected in mouse BAF3 cells assessed as growth inhibition after 72 hrs by CCK8 assay; format: cell-based
K562 [5] = test: Cell cycle arrest in human K562 cells assessed as accumulation at G0/G1 phase up to 0.3 uM after 24 hrs by propidium iodide/RNase staining based flow cytometric analysis; format: functional
[6] = Cmax in mouse at 1 mg/kg, iv by LC-MS/MS analysis; format: ADME, organism-based; parameters: dose 1 mg/kg, route intravenous; settings: in vivo
[7] = target: Ephrin type-A receptor 1 (Homo sapiens) (UniProt P21709); test: Inhibition of wild type C-terminal FLAG-tagged human TEL fused EPHA1 (unknown origin) transfected in mouse BAF3 cells assessed as growth inhibition after 72 hrs by CCK8 assay; format: cell-based
Chain of Ephrin type-A receptor 1 (Homo sapiens) (P21709 whole entry, the tested form may be a part): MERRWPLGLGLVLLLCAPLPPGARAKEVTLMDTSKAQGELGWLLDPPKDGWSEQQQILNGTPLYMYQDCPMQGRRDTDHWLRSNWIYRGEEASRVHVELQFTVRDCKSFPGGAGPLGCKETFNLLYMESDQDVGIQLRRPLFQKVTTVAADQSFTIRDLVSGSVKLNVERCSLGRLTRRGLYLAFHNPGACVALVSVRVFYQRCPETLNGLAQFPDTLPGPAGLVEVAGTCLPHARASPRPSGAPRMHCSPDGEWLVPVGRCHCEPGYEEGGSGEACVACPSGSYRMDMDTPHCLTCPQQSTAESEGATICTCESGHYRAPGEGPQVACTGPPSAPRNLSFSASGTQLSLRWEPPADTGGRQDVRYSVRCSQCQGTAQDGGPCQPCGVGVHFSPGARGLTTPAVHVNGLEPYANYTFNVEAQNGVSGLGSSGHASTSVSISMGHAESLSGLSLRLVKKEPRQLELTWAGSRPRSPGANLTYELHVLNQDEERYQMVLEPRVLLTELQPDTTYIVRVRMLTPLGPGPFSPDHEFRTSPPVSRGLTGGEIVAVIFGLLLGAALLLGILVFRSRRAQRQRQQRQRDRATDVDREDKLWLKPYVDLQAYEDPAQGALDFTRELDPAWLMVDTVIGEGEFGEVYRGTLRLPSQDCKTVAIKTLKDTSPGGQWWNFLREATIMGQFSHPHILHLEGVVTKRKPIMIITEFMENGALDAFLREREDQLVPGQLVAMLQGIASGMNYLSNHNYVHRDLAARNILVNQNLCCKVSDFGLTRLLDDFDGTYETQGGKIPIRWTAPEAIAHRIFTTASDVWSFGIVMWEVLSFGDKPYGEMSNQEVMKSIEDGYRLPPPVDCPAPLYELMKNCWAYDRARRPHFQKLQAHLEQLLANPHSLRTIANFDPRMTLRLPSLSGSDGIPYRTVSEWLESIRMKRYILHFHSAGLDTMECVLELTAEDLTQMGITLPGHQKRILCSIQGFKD

K562 [8] = test: Induction of apoptosis in human K562 cells assessed as cleaved caspase-3 level up to 0.3 uM after 24 hrs by immunoblotting analysis; format: functional, cell-based
[9] = target: T1, Tyrosine-protein kinase ABL1 (Homo sapiens, UniProt P00519); settings: BaF3
Description: Inhibition of wild type C-terminal FLAG-tagged human TEL fused ABL (unknown origin) transfected in mouse BAF3 cells assessed as growth inhibition after 72 hrs by CCK8 assay

BaF3 [10] = test: Antitumor activity against mouse BAF3 cells expressing BCR/ABL T315I mutant allografted in nu/nu mouse assessed as tumor growth inhibition at 25 mg/kg, po administered via gavage for 14 days relative to control; format: functional; settings: 336 h, read-out: TGI
[11] = target: T2, Bcr/Abl fusion protein (Homo sapiens) (UniProt P00519+P11274); test: Inhibition of BCR/ABL in human KU812 cells assessed as inhibition of CrkL phosphorylation up to 0.3 uM after 1 hr by immunoblotting analysis; format: cell-based
[12] = AUC (0 to infinity) in Sprague-Dawley rat at 1 mg/kg, iv by LC-MS/MS analysis; format: ADME, organism-based; parameters: dose 1 mg/kg, time infinity, route intravenous; settings: in vivo
[13] = target: T1, Tyrosine-protein kinase ABL1; test: Inhibition of active wild type His-tagged ABL (229 to 500 residues) (unknown origin) expressed in baculovirus infected sf9 cells using ABLtide as substrate after 1 hr by ADP-Glo assay
[14] = AUC (0 to infinity) in Sprague-Dawley rat at 10 mg/kg, po by LC-MS/MS analysis; format: ADME, organism-based; parameters: dose 10 mg/kg, time infinity, route oral; settings: in vivo
[15] = Apparent clearance during terminal phase in Sprague-Dawley rat at 1 mg/kg, iv by LC-MS/MS analysis; format: ADME, organism-based; settings: in vivo
[16] = Apparent volume of distribution during terminal phase in Sprague-Dawley rat at 1 mg/kg, iv by LC-MS/MS analysis; format: ADME, organism-based; settings: in vivo, read-out: Vz
BaF3 [17] = test: Antitumor activity against mouse BAF3 cells expressing BCR/ABL T315I mutant allografted in nu/nu mouse assessed as tumor growth inhibition at 25 to 50 mg/kg, po administered via gavage for 14 days by Ki-67 staining based assay; format: functional, organism-based
MEG-01 [18] = test: Cell cycle arrest in human MEG01 cells assessed as accumulation at G0/G1 phase up to 0.3 uM after 24 hrs by propidium iodide/RNase staining based flow cytometric analysis; format: functional
[19] = MRT (0 to t) in Sprague-Dawley rat at 10 mg/kg, po by LC-MS/MS analysis; format: ADME, organism-based; settings: in vivo
[20] = Apparent clearance during terminal phase in mouse at 1 mg/kg, iv by LC-MS/MS analysis; format: ADME, organism-based; settings: in vivo
[21] = Half life in mouse at 10 mg/kg, po by LC-MS/MS analysis; format: ADME, organism-based; settings: in vivo
[22] = target: T2, Bcr/Abl fusion protein (Homo sapiens); test: Inhibition of BCR/ABL in human MEG01 cells assessed as inhibition of STAT5 phosphorylation up to 0.3 uM after 1 hr by immunoblotting analysis; format: cell-based
BaF3 [23] = test: Induction of apoptosis in mouse BAF3 cells expressing BCR/ABL T315I mutant assessed as cleaved PARP level up to 0.3 uM after 24 hrs by immunoblotting analysis; format: functional, cell-based
[24] = Apparent volume of distribution during terminal phase in mouse at 1 mg/kg, iv by LC-MS/MS analysis; format: ADME, organism-based; settings: in vivo, read-out: Vz
MEG-01 [25] = test: Antiproliferative activity in human MEG01 cells after 72 hrs by CCK8 assay; format: functional; settings: MEG-01, 72 h
[26] = target: Macrophage colony-stimulating factor 1 receptor (Homo sapiens) (UniProt P07333); test: Inhibition of wild type C-terminal FLAG-tagged human TEL fused CSF1R (unknown origin) transfected in mouse BAF3 cells assessed as growth inhibition after 72 hrs by CCK8 assay; format: cell-based
Chain of Macrophage colony-stimulating factor 1 receptor (Homo sapiens) (P07333 whole entry, the tested form may be a part): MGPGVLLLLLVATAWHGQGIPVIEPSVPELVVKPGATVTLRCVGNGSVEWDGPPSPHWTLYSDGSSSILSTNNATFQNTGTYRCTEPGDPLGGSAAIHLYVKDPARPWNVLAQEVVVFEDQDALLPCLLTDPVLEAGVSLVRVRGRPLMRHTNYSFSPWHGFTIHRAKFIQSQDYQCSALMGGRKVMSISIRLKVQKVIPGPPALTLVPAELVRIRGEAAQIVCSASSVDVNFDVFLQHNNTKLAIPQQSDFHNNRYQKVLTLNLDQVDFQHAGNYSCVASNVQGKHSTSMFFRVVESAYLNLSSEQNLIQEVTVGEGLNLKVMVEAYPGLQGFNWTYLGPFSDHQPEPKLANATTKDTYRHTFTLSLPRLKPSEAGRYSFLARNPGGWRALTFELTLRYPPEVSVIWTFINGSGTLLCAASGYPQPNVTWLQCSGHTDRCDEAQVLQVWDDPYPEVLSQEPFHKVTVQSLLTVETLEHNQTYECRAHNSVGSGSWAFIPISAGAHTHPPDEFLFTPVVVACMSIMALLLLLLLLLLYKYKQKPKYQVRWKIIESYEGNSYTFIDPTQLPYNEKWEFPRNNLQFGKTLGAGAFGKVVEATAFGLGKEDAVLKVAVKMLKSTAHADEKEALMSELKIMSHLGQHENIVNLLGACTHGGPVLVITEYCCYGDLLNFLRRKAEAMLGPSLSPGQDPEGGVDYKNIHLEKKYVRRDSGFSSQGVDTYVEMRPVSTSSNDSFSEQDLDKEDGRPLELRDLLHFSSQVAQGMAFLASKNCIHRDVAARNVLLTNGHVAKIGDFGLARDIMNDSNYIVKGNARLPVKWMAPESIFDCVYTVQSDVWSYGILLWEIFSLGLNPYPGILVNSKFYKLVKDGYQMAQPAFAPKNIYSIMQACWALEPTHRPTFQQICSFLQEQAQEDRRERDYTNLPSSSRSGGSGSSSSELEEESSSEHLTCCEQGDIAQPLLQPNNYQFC

[27] = target: Vascular endothelial growth factor receptor 2 (Homo sapiens) (UniProt P35968); test: Inhibition of wild type C-terminal FLAG-tagged human TEL fused VEGFR2 (unknown origin) transfected in mouse BAF3 cells assessed as growth inhibition after 72 hrs by CCK8 assay; format: cell-based
Chain of Vascular endothelial growth factor receptor 2 (Homo sapiens) (P35968 whole entry, the tested form may be a part): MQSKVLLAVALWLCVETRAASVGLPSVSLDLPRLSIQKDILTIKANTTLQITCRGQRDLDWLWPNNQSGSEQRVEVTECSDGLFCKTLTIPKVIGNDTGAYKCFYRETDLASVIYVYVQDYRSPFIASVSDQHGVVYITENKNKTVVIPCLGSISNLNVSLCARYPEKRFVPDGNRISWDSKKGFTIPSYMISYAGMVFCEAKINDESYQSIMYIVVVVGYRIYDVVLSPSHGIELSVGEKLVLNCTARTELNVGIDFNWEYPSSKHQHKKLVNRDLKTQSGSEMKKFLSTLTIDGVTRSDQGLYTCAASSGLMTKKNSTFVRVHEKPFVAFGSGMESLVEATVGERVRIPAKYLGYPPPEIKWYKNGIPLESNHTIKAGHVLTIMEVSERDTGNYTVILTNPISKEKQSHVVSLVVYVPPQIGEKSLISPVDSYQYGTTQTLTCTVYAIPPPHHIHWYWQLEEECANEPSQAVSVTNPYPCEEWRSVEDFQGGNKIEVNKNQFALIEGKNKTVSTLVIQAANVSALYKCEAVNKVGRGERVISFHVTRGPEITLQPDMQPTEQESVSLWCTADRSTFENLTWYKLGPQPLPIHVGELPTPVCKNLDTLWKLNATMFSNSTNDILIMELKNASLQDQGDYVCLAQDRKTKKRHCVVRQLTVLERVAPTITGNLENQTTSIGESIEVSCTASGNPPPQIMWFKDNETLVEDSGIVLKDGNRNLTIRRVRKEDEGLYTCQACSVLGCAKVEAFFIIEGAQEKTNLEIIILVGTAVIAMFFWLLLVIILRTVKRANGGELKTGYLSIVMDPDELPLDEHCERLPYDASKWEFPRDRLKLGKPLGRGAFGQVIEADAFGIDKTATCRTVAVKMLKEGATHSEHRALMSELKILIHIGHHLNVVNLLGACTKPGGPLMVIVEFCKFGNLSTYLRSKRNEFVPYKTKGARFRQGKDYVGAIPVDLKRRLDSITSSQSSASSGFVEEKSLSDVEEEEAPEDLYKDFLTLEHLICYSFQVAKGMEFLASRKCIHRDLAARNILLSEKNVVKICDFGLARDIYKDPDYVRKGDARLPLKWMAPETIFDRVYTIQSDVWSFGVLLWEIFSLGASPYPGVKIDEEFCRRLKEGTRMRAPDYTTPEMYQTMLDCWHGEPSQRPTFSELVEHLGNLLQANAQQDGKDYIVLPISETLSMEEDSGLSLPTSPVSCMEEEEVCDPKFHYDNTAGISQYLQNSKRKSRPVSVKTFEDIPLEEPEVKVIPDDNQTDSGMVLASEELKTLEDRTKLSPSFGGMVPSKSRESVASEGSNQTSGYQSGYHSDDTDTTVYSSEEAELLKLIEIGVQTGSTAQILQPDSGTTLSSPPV

[28] = system: Bcr/Abl fusion protein (Homo sapiens), P00519+P11274 [Y253F]; settings: BaF3
[29] = target: Proto-oncogene tyrosine-protein kinase Src (Homo sapiens) (UniProt P12931); test: Inhibition of wild type C-terminal FLAG-tagged human TEL fused SRC (unknown origin) transfected in mouse BAF3 cells assessed as growth inhibition after 72 hrs by CCK8 assay; format: cell-based
Chain of Proto-oncogene tyrosine-protein kinase Src (Homo sapiens) (P12931 2-536 limits assumed): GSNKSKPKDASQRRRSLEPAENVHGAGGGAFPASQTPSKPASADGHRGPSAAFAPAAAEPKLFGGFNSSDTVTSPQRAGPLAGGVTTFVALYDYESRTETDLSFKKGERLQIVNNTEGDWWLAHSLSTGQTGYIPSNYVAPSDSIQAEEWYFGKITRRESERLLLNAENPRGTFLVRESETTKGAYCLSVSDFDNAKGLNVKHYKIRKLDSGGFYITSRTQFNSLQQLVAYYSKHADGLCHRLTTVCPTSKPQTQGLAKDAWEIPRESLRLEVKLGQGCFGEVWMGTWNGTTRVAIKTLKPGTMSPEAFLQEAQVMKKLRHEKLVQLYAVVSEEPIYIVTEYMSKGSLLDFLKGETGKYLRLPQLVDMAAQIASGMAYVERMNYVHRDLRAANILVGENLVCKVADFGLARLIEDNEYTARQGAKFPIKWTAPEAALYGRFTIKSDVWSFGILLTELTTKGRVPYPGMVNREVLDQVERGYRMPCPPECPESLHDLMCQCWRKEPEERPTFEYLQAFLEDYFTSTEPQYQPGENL

KU812 cell line [30] = test: Induction of apoptosis in human KU812 cells assessed as cleaved caspase-3 level up to 0.3 uM after 24 hrs by immunoblotting analysis; format: functional, cell-based
[31] = target: T3, Tyrosine-protein kinase ABL1 (Homo sapiens, UniProt P00519, T315I); test: Inhibition of active wild type His-tagged ABL T315I mutant (229 to 500 residues) (unknown origin) expressed in baculovirus infected sf9 cells using ABLtide as substrate after 1 hr by ADP-Glo assay
[32] = target: T3, Tyrosine-protein kinase ABL1; test: Inhibition of inactive wild type His-tagged ABL T315I mutant (229 to 500 residues) (unknown origin) expressed in baculovirus infected sf9 cells assessed as reduction in autophosphorylation preincubated for 60 mins followed by ATP addition measured after 8 hrs by ADP-Glo assay
[33] = target: Vascular endothelial growth factor receptor 1 (Homo sapiens) (UniProt P17948); test: Inhibition of wild type C-terminal FLAG-tagged human TEL fused FLT1 (unknown origin) transfected in mouse BAF3 cells assessed as growth inhibition after 72 hrs by CCK8 assay; format: cell-based
[34] = system: Bcr/Abl fusion protein (Homo sapiens), P00519+P11274 [H396P]; settings: BaF3
KU812 cell line [35] = test: Induction of apoptosis in human KU812 cells assessed as cleaved PARP level up to 0.3 uM after 24 hrs by immunoblotting analysis; format: functional, cell-based

In the case of CN1CCN(Cc2ccc(NC(=O)CCSc3ccc4c(/C=C/c5ccccn5)n[nH]c4c3)cc2C(F)(F)F)CC1, the Vz [1] is reported as 139.1 L/kg, the AUC(0-t) [2] is reported as 0.193 µg·h/mL and the GI50 [3] is reported as 1.54 µM. The GI50 [4] was 2.34 µM, the Activity (K562 [5]) was “Active” and the Cmax [6] was 0.525 µg/mL. For the same molecule, the GI50 [7] was 0.92 µM, the Activity (K562 [8]) was “Active” and the GI50 [9] was < 0.001 µM. For the same molecule, the inhibition in vivo at 25 mg/kg (BaF3 [10]) was 29%, the inhibition [11] was “Active” and the AUC(0-inf) [12] was 0.202 µg·h/mL. The IC50 [13] was 0.017 µM, the AUC(0-inf) [14] was 0.266 µg·h/mL and the CLz/F [15] was 5.1 L/h/kg. For the same molecule, the Vd [16] was 17.7 L/kg, the TGI (BaF3 [17]) was “Active” and the Activity (MEG-01 [18]) was “Active”. For the same molecule, the MRT last [19] was 4.4 h, the CLz/F [20] was 6.2 L/h/kg and the half-life [21] was 2 h. For the same molecule, the inhibition [22] was “Active”, the Activity (BaF3 [23]) was “Active” and the Vd [24] was 45.3 L/kg. For the same molecule, the GI50 (MEG-01 [25]) was 0.001 µM, the GI50 [26] was < 0.001 µM and the GI50 [27] was 0.002 µM. For the same molecule, the GI50 [28] was 0.18 µM, the GI50 [29] was 1.05 µM and the Activity (KU812 cell line [30]) was “Active”. The IC50 [31] was 0.0002 µM, the IC50 [32] was 0.0002 µM and the GI50 [33] was 0.002 µM. The GI50 [34] was 0.035 µM and the Activity (KU812 cell line [35]) was “Active”.
